Experimental data reported in patent publication US20140378515A1, “IMMUNOSUPPRESSIVE COMPOUNDS” (priority 2013, published 2014).
In brackets after ≈: the same amount, converted by molar mass. Several values for one entry are separate records, joined by “and”; a condition that tells them apart may be missing. Equal values may be shown once.

Experiments:
[1] = tested on: NO produced by mouse macrophages J774.2 cell line; experiment: Nitrite accumulation in LPS-stimulated J774.2 macrophages (Griess method); type: cell-based; settings: LPS-stimulated J774.2, 24 hours
Protocol: The mouse macrophage cell line J774.2 obtained from ECACC, Salisbury, Wiltshire (UK) was cultured in T75 flasks in complete DMEM containing 10% fetal bovine serum and supplemented with 1% streptomycin/penicillin. Flasks were kept at 37° C. in the atmosphere of humidified air containing 5% CO2. Cell were then seeded in 24 well (10^6 cells/mL) and nitric oxide synthase (NOS-2) in the macrophages was induced by addition of 20 μg/mL E. coli lipopolysaccharide (DIFCO Laboratories, Michigan, USA). The test compounds were added at a concentration of 25 μg/mL soon after LPS stimulation and incubated at 37° C. in 5% CO2. Cell culture supernatant was collected after 24 hours. Nitrite accumulation in J774.2 cell culture supernatant was measured using the Griess method, where 50 μL of 1% sulphanilamide in 2.5% phosphoric acid, followed by 50 μL of 0.1% naphtyl-ethylene diamine dihydrochloride in 2.5% phosphoric acid were added to 50 μL culture medium. After 10 minutes of incubation at room temperature the absorbance at 550 nm was read. Micromolar concentrations of nitrite were calculated from standard curve constructed with sodium nitrite a reference compound. The results were expressed as means±SD of duplicate readings.

[2] = tested on: ROS produced by human blood phagocytes; experiment: Oxidative burst, luminol-enhanced chemiluminescence in whole blood; type: cell-based; settings: serum opsonized zymosan
Protocol: Formation of the reactive oxygen species (ROS) in whole blood, during the oxidative burst was measured by the luminol-enhanced chemiluminescence assay. In brief, three concentrations of each compound (1.0, 10 and 100 μg/mL) were prepared in 25 μL of Hank's Balanced salt solution containing calcium chloride and magnesium sulfate (HBSS^++) in a half area 96-well white flat-bottomed plate (Sigma Aldrich, Steinheim, Germany) in a final volume of 100 μL. Then 25 μL of whole blood diluted 1:50 in suspension of HBSS^++ was added.
Positive and negative controls and blank wells were included. Cells and compounds were incubated for 30 minutes at 37° C., then 25 μL luminol [3-aminophthalhydrazide] (Research Organics Cleveland, Ohio, USA), were added into each well followed by 25 μL of serum opsonized zymosan (Saccharomyces cerevisiae origin) purchased from Fluka, Buchs (Switzerland) was added except for negative and blank wells. The ROS chemiluminescence kinetic was monitored with a luminometer from Labsystems (Helsinki, Finland), for 50 minutes in the repeated scan mode. Peak and total integral chemiluminescence readings were expressed in the relative light unit.

[3] = tested on: 3T3 NIH mouse embryo fibroblast cell line; experiment: MTT cytotoxicity assay; settings: for Cytotoxicity IC50: 3T3 NIH cells, 48 h; for interference with the growth of 3T3 cells: up to 20 μg/mL
Protocol: The 3T3-NIH cells were suspended in Dulbecco's Modified Eagle's Medium (DMEM) formulated with 10% FBS. Using flat bottomed plates, cells were plated at a concentration of 6×10^4 cells/mL and incubated for 24 h at 37° C. and 5% CO2 environment. […] Following exposure to each compound, cell viability was assessed by using 0.5 mg/mL of MTT {3-(4,5-dimethylthiazol-2-yl)-2,5-diphenyltetrazolium bromide for 4 h followed by the removal of supernatant and addition of DMSO to solubilize the formazan complex. The plates were read at 540 nm after one minute shaking and readings were processed using MS Excel software. The results were expressed as means±SD of triplicate readings.

[4] = tested on: IL-2 production; experiment: IL-2 production by PHA/PMA stimulated PBMCs (ELISA); type: cell-based, human
Protocol: The PBMCs were cultured in a 96-well flat-bottomed plate (1.0×10^5 cell/well) in the presence or absence of three concentrations of test compounds (1.0, 5.0 and 20 μg/mL), and phytohemagglutinin (PHA) phorbol myristate acetate (PMA) in a final concentration of 5 ng/mL and 20 ng/mL, respectively. After an incubation period of 18 h at 37° C. in a humidified atmosphere of 5% CO2 in air, the supernatant was collected for IL-2 determination. Interleukin-2 levels were measured by using enzyme-linked immunosorbent assay (ELISA) development kit (R&D systems, Minneapolis, Minn., USA). The assay was performed according to the manufacturer's instructions. Briefly, a 96-well flat-bottomed ELISA plate was coated with 4.0 μg/mL mouse anti-human IL-2, in PBS, pH 7.4. Then, re-combinant human IL-2 standards and culture supernatant samples were added and incubated for 2 h followed by washing steps and then the addition of biotinylated goat anti-human IL-2. After an incubation period of 2 h at room temperature, the plates were again washed and streptavidin conjugated horse raddish peroxidase was added and incubated for additional 20 min at room temperature. After the final washes, an enzyme substrate solution of H2O2 and tetra methyl benzidine (1:1 v/v) was added and the color was allowed to develop at room temperature in the dark. The plates were then read at 450 nm in a plate reader (DIAReader GMBH, Wr. Neudorf, Austria). The results were analyzed using Microsoft Excel.

[5] = tested on: T-cell proliferation; experiment: T-cell proliferation assay (PHA-stimulated PBMNCs, 3H-thymidine incorporation); type: cell-based, human; set-up: unit not given here; settings: PHA 5 μg/mL stimulated PBMNCs
Protocol: The diluted blood was then layered onto lymphocyte separation medium (MP Biomedicals, Inc., Ohio, USA) and centrifuged at 400 g for 20 min at 25° C. […] Plates were then incubated at 37° C. in a humidified atmosphere of 5% CO2 in air for 72 hours. To each well, 0.5 μCi [methyl ^3H]-thymidine (Amersham Place Little Chalfont, Buckinghamshire, UK) was added for an additional 18 hours. Cells were harvested using a cell harvester (Inotech, Dottikon, Switzerland), and incorporation and level of radioactivity was measured by a liquid scintillation counter (Beckman coulter, LS 6500, Fullerton, Calif., USA).

[6] = tested on: IL-4 production; experiment: IL-4 production by PHA stimulated PBMNCs (ELISA); type: cell-based, human; settings: 18 h
Protocol: The PBMNCs were cultured in a 96-well flat-bottomed plate (2.0×10^6 cell/mL) in the presence or absence of three concentrations of test compounds (1.0, 5.0, and 25 μg/mL), and phytohemagglutinin (PHA) in a final concentration of 7.5 μg/mL. After an incubation period of 18 h at 37° C. in 5% CO2, supernatant was collected for IL-4 determination. Interleukin-4 levels were measured by using enzyme-linked immunosorbent assay (ELISA) kit (Diaclone, France). The assay was performed according to the manufacturer's instructions. Briefly, in a 96-well ELISA plate which was coated with monoclonal mouse anti-human IL-4, 100 μl recombinant human IL-4 standards and culture supernatants samples were added. The plates were incubated for 2 hours at room temperature and washed three times with wash buffer, followed by the addition of biotinylated goat anti-human IL-4 and further incubated for 1 hour at room temperature. The plates were again washed and streptavidin conjugated horse raddish peroxidase was added and incubated for an additional 20 minutes at room temperature. After three final washes, the enzyme substrate solution was added and incubated for 12 to 15 minutes to allow color development at room temperature in the dark. Then stop solution was added and the plates were read at 450 nm in a plate reader (DIAReader GMBH, Wr. Neudorf, Austria). The results were analyzed using Microsoft Excel.

[7] = tested on: NO produced by mouse macrophages J774.2 cell line; experiment: Nitrite accumulation in LPS-stimulated J774.2 macrophages (Griess method); type: cell-based

SMILES | % of NO inhibited by 25 μg/mL of compound [1] [%] | IC50 (μg/mL) for phagocytes ROS [2] [µg/mL] | further results
CCOc1cccc(-c2nc3ccccc3s2)c1O [Compound 1] | 26.5 ± 0.0 | >100 | –
c1ccc2cc(-c3nc4ccccc4s3)ccc2c1 [Compound 3] | 20.5 ± 5.9 | >100 | –
Oc1cccc(-c2nc3ccccc3s2)c1 [Compound 5] | 44.5 ± 0.3 | >100 | Cytotoxicity IC50 [3]: >20 µg/mL; interference with the growth of 3T3 cells [3]: did not interfere with the growth of 3T3 cells; IC50 IL-2 production ([4]; PHA/PMA stimulated PBMCs, 18 h incubation): 6.0 µg/mL (≈ 26.4 µM); IC50 T-cell proliferation [5]: 2.7±0.2; IC50 IL-4 production [6]: 8.9 ± 0.6 µg/mL (≈ 39.2 µM)
Oc1ccc(Cl)cc1-c1nc2ccccc2s1 [Compound 6] | 35.5 ± 7.4 | 34.3 ± 4.4 | –
Cc1ccccc1-c1nc2ccccc2s1 [Compound 7] | 5.4 ± 2.8 | >100 | –
Oc1ccc(-c2nc3ccccc3s2)cc1O [Compound 9] | 58.5±3.3 | 3.7 ± 0.2 | Cytotoxicity IC50 [3]: 11.1 µg/mL and 11.4 ± 1.8 µg/mL; interference with the growth of 3T3 cells [3]: did not interfere with the growth of 3T3 cells; IC50 T-cell proliferation [5]: 1.2±0.0; IC50 NO production [7]: 12.6 ± 2.1 µg/mL (≈ 51.8 µM)
Oc1cccc(-c2nc3ccccc3s2)c1O [Compound 10] | 14.3 ± 1.0 | 1.1 ± 0.1 | interference with the growth of 3T3 cells [3]: did not interfere with the growth of 3T3 cells; IC50 T-cell proliferation [5]: 0.99±0.1
Clc1ccc(-c2nc3ccccc3s2)c(Cl)c1 [Compound 11] | −7.4 ± 3.0 | >100 | –
COc1ccc(-c2nc3ccccc3s2)cc1OC [Compound 12] | −1.5 ± 0.6 | >100 | IC50 T-cell proliferation [5]: 1.0±0.1; IC50 IL-4 production [6]: < 1.0 µg/mL
Oc1ccc(-c2nc3ccccc3s2)c(O)c1 [Compound 13] | 32.7 ± 8.3 | 11.1 ± 0.9 | Cytotoxicity IC50 [3]: 11.5 ± 0.0 µg/mL; interference with the growth of 3T3 cells [3]: did not interfere with the growth of 3T3 cells
CN(C)c1ccc(-c2nc3ccccc3s2)cc1 [Compound 14] | 16.8 ± 0.8 | 11.8 ± 1.2 | Cytotoxicity IC50 [3]: >25 µg/mL; interference with the growth of 3T3 cells [3]: did not interfere with the growth of 3T3 cells
Cc1ccc(-c2nc3ccccc3s2)cc1 [Compound 15] | 10.8 ± 2.4 | >100 | –
Oc1ccccc1-c1nc2ccccc2s1 [Compound 16] | 20.2 ± 1.5 | >100 | –
Clc1cccc(-c2nc3ccccc3s2)c1 [Compound 17] | 14.1 ± 3.0 | 81.0 ± 4.1 | –
Oc1cc(O)c(-c2nc3ccccc3s2)cc1O [Compound 18] | 78.1±1.6 | >100 | Cytotoxicity IC50 [3]: 10.4 µg/mL; IC50 ([4]; experimental IL-2 IC50 listed in Table 3): 1.1 µg/mL (≈ 4.24 µM); IC50 T-cell proliferation [5]: 1.95±0.4; IC50 IL-4 production [6]: 8.0 ± 0.0 µg/mL (≈ 30.9 µM)
c1cncc(-c2nc3ccccc3s2)c1 [Compound 19] | 11.7 ± 1.7 | >100 | –
c1ccc2sc(-c3ccncc3)nc2c1 [Compound 20] | 41.6 ± 4.7 | 15.5 ± 1.0 | Cytotoxicity IC50 [3]: >25 µg/mL
Brc1ccc(-c2nc3ccccc3s2)cc1 [Compound 21] | 11.5 ± 2.7 | >100 | –
CCOc1ccc(-c2nc3ccccc3s2)cc1 [Compound 22] | 23.5 ± 3.7 | >100 | –
Fc1ccccc1-c1nc2ccccc2s1 [Compound 23] | 28.4 ± 2.5 | >100 | –
c1csc(-c2nc3ccccc3s2)c1 [Compound 24] | 30.3 ± 0.3 | 14.4 ± 2.5 | Cytotoxicity IC50 [3]: >25 µg/mL; interference with the growth of 3T3 cells [3]: did not interfere with the growth of 3T3 cells
Clc1ccc(-c2nc3ccccc3s2)cc1 [Compound 25] | 20.6 ± 5.3 | >100 | –
Clc1ccc(-c2nc3ccccc3s2)cc1Cl [Compound 26] | 35.7 ± 1.5 | >100 | –
CC(C)Cc1ccc(C(C)C(=O)O)cc1 (centres unmarked) [Ibuprofen, reference compound] | – | – | IC50 ([2]; read-out: IC50 (μg/mL) for phagocytes ROS): 11.8 ± 1.2 µg/mL
